Values of other authors as cited in US8709164B2, “Methods and compositions for dislodging debris particles from a substrate” (University of South Carolina, priority 2010, dated 2014).

What was measured:
[1] = tested on: D. farinae; details: among 15 chemicals
[2] = tested on: D. pteronyssinus; details: washing soak with addition of 0.03% benzyl benzoate

Compound	ability to kill D. farinae (words, order of potency) [1]	mites survived out of 10,000 [2]
Cl[C@H]1[C@H](Cl)[C@@H](Cl)[C@@H](Cl)[C@H](Cl)[C@H]1Cl [Lindane]	most effective	–
O=C(OCc1ccccc1)c1ccccc1 [benzyl benzoate]	most effective	approximately 50
CCN(CC)c1nc(C)cc(OP(=S)(OC)OC)n1 [pirimiphosmethyl]	most effective	–
